# Values of other authors in article PMC10485003, “Antibiotic hyper-resistance in a class I aminoacyl-tRNA synthetase with altered active site signature motif” (Nature Communications, 2023).
# Test system: IleRS
# Parameters: method as in PMID 18234501
# Details: monic acid A alone, without the nonanoic acid part; cited from earlier work
compound,measurement,value
CC(=CC(=O)O)CC1OCC(CC2OC2C(C)C(C)O)C(O)C1O (stereo not shown) [monic acid A],inhibitor activity,cannot act as an inhibitor
